# In ChEMBL document CHEMBL1201862, “PubChem BioAssay data set” (2004):
#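 Five compound concentrations were applied to cells in 96-well plates for 48 hours; endpoints were derived by simple linear interpolation of the resulting dose-response curve. At the GI50, growth is halved.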 Activity calls are given as the source filed them. Cut-off read from the data, not from the text of the source: active = GI50 up to about 1.1 µM and inactive = higher.
# Columns and labels:
# Assay in all cases: NCI anticancer screen, dose series, 48 h
# [1] = test system: 786-0
# [2] = test system: A549
# [3] = test system: ACHN
# [4] = test system: BT-549
# [5] = test system: CAKI-1
# [6] = test system: CCRF-CEM
# [7] = test system: COLO 205
# [8] = test system: DU-145
# [9] = test system: EKVX
# [10] = test system: HCC 2998
# [11] = test system: HCT-116
# [12] = test system: HCT-15
# [13] = test system: HL-60
# [14] = test system: HOP-62
# [15] = test system: HOP-92
# [16] = test system: HT-29
# [17] = test system: Hs-578T
# [18] = test system: IGROV-1
# [19] = test system: K562
# [20] = test system: KM12
# [21] = test system: LOX IMVI
# [22] = test system: M14
# [23] = test system: MCF7
# [24] = test system: MDA-MB-435
# [25] = test system: MDA-N
# [26] = test system: MOLT-4
# [27] = test system: Malme-3M
# [28] = test system: NCI-H226
# [29] = test system: NCI-H23
# [30] = test system: NCI-H460
# [31] = test system: NCI-H522
# [32] = test system: NCI/ADR-RES
# [33] = test system: OVCAR-3
# [34] = test system: OVCAR-4
# [35] = test system: OVCAR-5
# [36] = test system: OVCAR-8
# [37] = test system: PC-3
# [38] = test system: RPMI-8226
# [39] = test system: RXF 393
# [40] = test system: SF-268
# [41] = test system: SF-295
# [42] = test system: SF-539
# [43] = test system: SK-MEL-2
# [44] = test system: SK-MEL-5
# [45] = test system: SK-OV-3
# [46] = test system: SN12C
# [47] = test system: SNB-19
# [48] = test system: SR
# [49] = test system: SW-620
# [50] = test system: T47D
# [51] = test system: TK-10
# [52] = test system: U-251
# [53] = test system: UACC-257
# [54] = test system: UACC-62
# [55] = test system: UO-31
# [56] = test system: A498
# [57] = test system: MDA-MB-231
# [58] = test system: SNB-75
smiles,measurement,setting,value
N=C1NC(c2ccc(Cl)cc2)=CC(c2cccc(Cl)c2)S1 (stereo not given),GI50,[1],36.1 µM (inactive)
same,GI50,[2],24.7 µM (inactive)
same,GI50,[3],24.4 µM (inactive)
same,GI50,[4],63.5 µM (inactive)
same,GI50,[5],24.1 µM (inactive)
same,GI50,[6],22.4 µM (inactive)
same,GI50,[7],16.4 µM (inactive)
same,GI50,[8],66.1 µM (inactive)
same,GI50,[9],25.4 µM (inactive)
same,GI50,[10],27.7 µM (inactive)
same,GI50,[11],26.4 µM (inactive)
same,GI50,[12],13.1 µM
same,GI50,[13],38 µM (inactive)
same,GI50,[14],38.7 µM (inactive)
same,GI50,[15],16.9 µM (inactive)
same,GI50,[16],30.8 µM (inactive)
same,GI50,[17],26.5 µM (inactive)
same,GI50,[18],30.9 µM (inactive)
same,GI50,[19],34.3 µM (inactive)
same,GI50,[20],27 µM (inactive)
same,GI50,[21],33.7 µM (inactive)
same,GI50,[22],48.4 µM (inactive)
same,GI50,[23],24.8 µM (inactive)
same,GI50,[24],18.2 µM (inactive)
same,GI50,[25],21.2 µM (inactive)
same,GI50,[26],37.4 µM (inactive)
same,GI50,[27],38 µM (inactive)
same,GI50,[28],26.7 µM (inactive)
same,GI50,[29],34.8 µM (inactive)
same,GI50,[30],26.4 µM (inactive)
same,GI50,[31],20.1 µM (inactive)
same,GI50,[32],45.4 µM (inactive)
same,GI50,[33],41.7 µM (inactive)
same,GI50,[34],20.3 µM (inactive)
same,GI50,[35],66.8 µM (inactive)
same,GI50,[36],38.6 µM (inactive)
same,GI50,[37],28.2 µM (inactive)
same,GI50,[38],17.3 µM (inactive)
same,GI50,[39],23.8 µM (inactive)
same,GI50,[40],41.8 µM (inactive)
same,GI50,[41],33.8 µM (inactive)
same,GI50,[42],48.8 µM (inactive)
same,GI50,[43],20.6 µM (inactive)
same,GI50,[44],27 µM (inactive)
same,GI50,[45],36.3 µM (inactive)
same,GI50,[46],27.7 µM (inactive)
same,GI50,[47],16.8 µM (inactive)
same,GI50,[48],28.7 µM (inactive)
same,GI50,[49],34.5 µM (inactive)
same,GI50,[50],25.4 µM (inactive)
same,GI50,[51],22.4 µM (inactive)
same,GI50,[52],22.4 µM (inactive)
same,GI50,[53],25.2 µM (inactive)
same,GI50,[54],18.8 µM (inactive)
same,GI50,[55],29 µM (inactive)
Cn1c2c(c3c(=O)[nH]ncc31)CCCc1ccccc1-2,GI50,[1],27.8 µM (inactive)
same,GI50,[56],22.4 µM (inactive)
same,GI50,[2],27.2 µM (inactive)
same,GI50,[3],26.8 µM (inactive)
same,GI50,[4],31.2 µM (inactive)
same,GI50,[5],21.8 µM (inactive)
same,GI50,[6],34.5 µM (inactive)
same,GI50,[7],17.9 µM (inactive)
same,GI50,[8],37.9 µM (inactive)
same,GI50,[9],11.8 µM (inactive)
same,GI50,[11],18.1 µM (inactive)
same,GI50,[12],29.8 µM
same,GI50,[13],0.0817 µM (active)
same,GI50,[14],18.9 µM (inactive)
same,GI50,[15],12.9 µM (inactive)
same,GI50,[16],28.4 µM (inactive)
same,GI50,[17],20.9 µM (inactive)
same,GI50,[18],24.5 µM (inactive)
same,GI50,[19],11.3 µM (inactive)
same,GI50,[20],37.3 µM (inactive)
same,GI50,[21],21.6 µM (inactive)
same,GI50,[22],39.3 µM (inactive)
same,GI50,[23],25 µM (inactive)
same,GI50,[57],27.5 µM (inactive)
same,GI50,[24],20.9 µM (inactive)
same,GI50,[26],0.0891 µM (active)
same,GI50,[27],22.5 µM (inactive)
same,GI50,[28],27.2 µM (inactive)
same,GI50,[29],37.7 µM (inactive)
same,GI50,[30],23.6 µM (inactive)
same,GI50,[31],18.2 µM (inactive)
same,GI50,[32],36.7 µM (inactive)
same,GI50,[33],26.8 µM (inactive)
same,GI50,[34],37.4 µM (inactive)
same,GI50,[35],45.2 µM (inactive)
same,GI50,[36],24.9 µM (inactive)
same,GI50,[37],26.1 µM (inactive)
same,GI50,[38],17.4 µM (inactive)
same,GI50,[40],29.2 µM (inactive)
same,GI50,[41],32.5 µM (inactive)
same,GI50,[42],35.7 µM (inactive)
same,GI50,[43],20.8 µM (inactive)
same,GI50,[44],16.1 µM (inactive)
same,GI50,[45],25.7 µM (inactive)
same,GI50,[46],25.6 µM (inactive)
same,GI50,[47],42.7 µM (inactive)
same,GI50,[58],23.6 µM (inactive)
same,GI50,[48],0.0993 µM (active)
same,GI50,[49],34.3 µM (inactive)
same,GI50,[50],38.9 µM (inactive)
same,GI50,[51],28.7 µM (inactive)
same,GI50,[52],27.9 µM (inactive)
same,GI50,[53],34.1 µM (inactive)
same,GI50,[54],28.7 µM (inactive)
same,GI50,[55],22.6 µM (inactive)
